Drawing on patent publication US20220226299A1 (NIPPON CHEMIPHAR CO., LTD., priority 2019, published 2022), this text covers IC50 for 14 molecules.

The target in assay [1] is T1, human Cav3.2 channels (Homo sapiens, UniProt O95180).
T1 construct: human Cav3.2 channel ORF (Open Reading Frame) gene; expressed in transfected cells; host or cells: HEK293 cells (ATCC No. CRL-1573), pcDNA3.1(+) plasmid
The experiment in a line: T-type calcium blocking action: intracellular calcium (Fluo-4 AM fluorescence) in HEK293 cells steadily expressing human Cav3.2 channels. As to conditions: HEK293 cells expressing human Cav3.2; KCl-stimulated calcium influx, Fluo-4 fluorescence; Tables 1 to 3. The assay is classed as cell-based. In outline: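 Fluo-4 AM-loaded stable HEK293 cells were preincubated 15 min at RT with compound (0.1% DMSO final) in choline-based buffer (pH 7.3). Gramicidin was added, then KCl-induced calcium influx was read at 485/510 nm for 10 s. Percent block came from peak rise over baseline, and IC50 from log-concentration plots.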

The target in assay [2] is T2, Cav3.1 channel (Homo sapiens, UniProt O43497).
T2 construct: replaced with a Cav3.1 channel ORF gene; expressed in transfected cells
The assay can be described thus: Cav3.1 channel blocking action, as the Cav3.2 test but with the Cav3.1 channel ORF gene and 1.0 mM CaCl2 in the buffers. It counts as cell-based. As to conditions: Cav3.1 channel ORF gene; CaCl2 1.0 mM in buffer A and buffer B.

T1 sequence (O95180 whole entry): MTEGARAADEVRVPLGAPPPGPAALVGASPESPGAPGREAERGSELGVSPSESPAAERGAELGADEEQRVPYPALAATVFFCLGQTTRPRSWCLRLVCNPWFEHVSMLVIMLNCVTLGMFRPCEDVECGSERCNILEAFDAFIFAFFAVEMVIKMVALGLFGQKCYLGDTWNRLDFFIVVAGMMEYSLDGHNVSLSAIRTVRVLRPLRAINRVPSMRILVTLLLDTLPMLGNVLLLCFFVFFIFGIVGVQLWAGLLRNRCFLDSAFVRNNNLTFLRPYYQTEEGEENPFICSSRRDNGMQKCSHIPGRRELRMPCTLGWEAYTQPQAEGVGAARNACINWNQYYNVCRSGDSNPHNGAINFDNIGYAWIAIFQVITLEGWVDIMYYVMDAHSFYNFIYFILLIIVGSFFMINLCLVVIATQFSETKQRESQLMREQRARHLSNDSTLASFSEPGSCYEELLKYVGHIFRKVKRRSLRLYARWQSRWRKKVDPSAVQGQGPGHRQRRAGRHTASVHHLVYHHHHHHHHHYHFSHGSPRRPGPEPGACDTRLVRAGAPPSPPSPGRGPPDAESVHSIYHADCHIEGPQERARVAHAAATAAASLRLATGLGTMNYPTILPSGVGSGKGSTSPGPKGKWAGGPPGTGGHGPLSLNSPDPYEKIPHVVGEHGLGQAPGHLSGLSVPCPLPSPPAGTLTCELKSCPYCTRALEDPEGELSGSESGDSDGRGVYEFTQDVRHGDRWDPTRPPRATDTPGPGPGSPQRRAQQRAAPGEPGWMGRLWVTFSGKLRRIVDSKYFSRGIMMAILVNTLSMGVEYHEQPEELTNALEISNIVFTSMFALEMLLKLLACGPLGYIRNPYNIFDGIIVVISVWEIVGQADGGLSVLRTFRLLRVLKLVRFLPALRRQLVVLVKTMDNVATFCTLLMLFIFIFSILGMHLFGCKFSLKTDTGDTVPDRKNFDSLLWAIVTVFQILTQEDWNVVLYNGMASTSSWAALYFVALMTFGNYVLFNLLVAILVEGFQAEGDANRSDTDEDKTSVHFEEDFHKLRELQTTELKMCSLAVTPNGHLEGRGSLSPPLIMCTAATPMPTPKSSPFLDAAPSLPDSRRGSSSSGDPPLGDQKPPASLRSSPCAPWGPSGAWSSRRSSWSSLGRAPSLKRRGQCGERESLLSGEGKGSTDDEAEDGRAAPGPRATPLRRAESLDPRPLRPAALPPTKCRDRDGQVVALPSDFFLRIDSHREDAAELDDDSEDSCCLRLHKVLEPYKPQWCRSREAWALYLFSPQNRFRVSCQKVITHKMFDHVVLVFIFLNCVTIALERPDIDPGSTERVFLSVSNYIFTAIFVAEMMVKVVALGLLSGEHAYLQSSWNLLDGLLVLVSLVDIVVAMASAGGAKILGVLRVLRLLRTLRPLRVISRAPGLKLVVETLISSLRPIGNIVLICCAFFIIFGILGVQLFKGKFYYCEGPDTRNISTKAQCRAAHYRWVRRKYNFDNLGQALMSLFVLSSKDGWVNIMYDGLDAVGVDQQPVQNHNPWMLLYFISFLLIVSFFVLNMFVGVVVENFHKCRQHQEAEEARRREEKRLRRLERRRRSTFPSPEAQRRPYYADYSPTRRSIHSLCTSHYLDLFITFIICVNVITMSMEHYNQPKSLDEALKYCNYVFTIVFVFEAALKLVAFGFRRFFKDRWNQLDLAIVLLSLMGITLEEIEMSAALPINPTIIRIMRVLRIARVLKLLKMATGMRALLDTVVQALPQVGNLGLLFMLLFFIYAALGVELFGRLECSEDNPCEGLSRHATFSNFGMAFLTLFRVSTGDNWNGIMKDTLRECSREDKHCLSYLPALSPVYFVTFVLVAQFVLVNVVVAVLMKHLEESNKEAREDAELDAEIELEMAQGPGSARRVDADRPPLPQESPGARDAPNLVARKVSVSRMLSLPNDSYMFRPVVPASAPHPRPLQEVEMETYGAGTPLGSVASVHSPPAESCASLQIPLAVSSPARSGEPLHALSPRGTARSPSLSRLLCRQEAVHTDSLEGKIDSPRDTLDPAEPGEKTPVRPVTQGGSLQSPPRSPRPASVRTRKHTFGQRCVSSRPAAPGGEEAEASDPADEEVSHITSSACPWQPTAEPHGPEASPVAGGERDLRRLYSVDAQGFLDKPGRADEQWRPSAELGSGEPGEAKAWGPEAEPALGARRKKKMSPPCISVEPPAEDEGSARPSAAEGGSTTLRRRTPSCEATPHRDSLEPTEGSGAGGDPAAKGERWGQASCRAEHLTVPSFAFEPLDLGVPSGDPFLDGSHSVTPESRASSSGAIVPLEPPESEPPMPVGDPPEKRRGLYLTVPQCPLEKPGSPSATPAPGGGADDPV
T2 sequence (O43497 whole entry): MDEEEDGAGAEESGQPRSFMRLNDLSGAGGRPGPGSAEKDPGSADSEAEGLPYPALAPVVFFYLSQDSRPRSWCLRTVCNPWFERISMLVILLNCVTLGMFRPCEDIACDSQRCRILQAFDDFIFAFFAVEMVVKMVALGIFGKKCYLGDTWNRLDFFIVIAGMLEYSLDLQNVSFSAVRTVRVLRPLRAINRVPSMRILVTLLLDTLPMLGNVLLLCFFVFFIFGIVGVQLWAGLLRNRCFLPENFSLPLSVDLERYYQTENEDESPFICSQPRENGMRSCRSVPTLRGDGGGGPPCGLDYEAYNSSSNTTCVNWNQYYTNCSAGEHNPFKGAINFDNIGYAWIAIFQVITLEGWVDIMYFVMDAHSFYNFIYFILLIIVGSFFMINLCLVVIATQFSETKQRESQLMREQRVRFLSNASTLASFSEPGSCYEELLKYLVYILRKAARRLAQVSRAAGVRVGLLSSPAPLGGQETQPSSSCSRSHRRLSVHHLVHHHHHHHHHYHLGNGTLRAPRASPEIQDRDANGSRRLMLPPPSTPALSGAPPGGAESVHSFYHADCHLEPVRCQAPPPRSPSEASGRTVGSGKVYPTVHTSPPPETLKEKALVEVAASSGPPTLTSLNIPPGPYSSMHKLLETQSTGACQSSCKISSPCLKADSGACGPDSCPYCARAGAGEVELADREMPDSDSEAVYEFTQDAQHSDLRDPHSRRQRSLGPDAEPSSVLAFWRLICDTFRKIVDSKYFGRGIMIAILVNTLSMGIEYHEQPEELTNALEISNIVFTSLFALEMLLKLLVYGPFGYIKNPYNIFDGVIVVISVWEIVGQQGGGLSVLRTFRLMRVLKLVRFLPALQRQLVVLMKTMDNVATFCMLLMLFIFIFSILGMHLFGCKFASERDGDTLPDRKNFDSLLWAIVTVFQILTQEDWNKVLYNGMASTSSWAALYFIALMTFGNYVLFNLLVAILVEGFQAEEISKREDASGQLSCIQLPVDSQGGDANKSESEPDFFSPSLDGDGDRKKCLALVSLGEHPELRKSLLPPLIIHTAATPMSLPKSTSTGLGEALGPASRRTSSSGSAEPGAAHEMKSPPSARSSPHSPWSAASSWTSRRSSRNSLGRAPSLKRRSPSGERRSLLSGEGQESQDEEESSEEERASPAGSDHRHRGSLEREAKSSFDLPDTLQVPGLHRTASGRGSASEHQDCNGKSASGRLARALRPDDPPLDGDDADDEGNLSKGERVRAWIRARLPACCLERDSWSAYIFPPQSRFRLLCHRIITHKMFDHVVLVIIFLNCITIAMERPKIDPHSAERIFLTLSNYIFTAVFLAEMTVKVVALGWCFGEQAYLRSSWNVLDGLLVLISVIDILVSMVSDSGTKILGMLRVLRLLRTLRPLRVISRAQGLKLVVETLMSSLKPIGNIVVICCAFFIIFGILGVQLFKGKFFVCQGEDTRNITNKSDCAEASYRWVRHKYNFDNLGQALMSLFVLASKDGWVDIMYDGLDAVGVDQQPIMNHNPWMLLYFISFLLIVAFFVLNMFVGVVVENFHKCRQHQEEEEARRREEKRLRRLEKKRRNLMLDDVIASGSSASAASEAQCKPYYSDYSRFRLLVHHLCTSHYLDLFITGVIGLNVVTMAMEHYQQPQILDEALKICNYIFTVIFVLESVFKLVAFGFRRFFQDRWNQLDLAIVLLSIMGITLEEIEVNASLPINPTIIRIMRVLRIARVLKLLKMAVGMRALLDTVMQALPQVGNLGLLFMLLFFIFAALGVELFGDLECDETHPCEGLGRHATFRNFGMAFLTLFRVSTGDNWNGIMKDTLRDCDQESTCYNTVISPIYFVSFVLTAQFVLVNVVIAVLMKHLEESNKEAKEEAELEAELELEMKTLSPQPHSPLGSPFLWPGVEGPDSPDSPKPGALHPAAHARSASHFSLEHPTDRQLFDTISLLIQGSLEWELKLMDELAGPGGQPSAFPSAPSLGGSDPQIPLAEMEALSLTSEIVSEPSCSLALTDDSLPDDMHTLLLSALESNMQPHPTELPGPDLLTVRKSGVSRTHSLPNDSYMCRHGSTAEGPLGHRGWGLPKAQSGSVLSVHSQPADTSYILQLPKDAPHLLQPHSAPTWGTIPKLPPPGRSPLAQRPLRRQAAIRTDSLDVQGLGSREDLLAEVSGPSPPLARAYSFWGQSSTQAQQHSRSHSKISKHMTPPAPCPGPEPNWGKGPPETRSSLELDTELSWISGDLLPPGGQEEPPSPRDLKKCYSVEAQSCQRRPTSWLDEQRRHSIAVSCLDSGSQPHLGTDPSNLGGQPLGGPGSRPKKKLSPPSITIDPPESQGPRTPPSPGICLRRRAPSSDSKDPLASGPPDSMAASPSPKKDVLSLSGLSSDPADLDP

`Cn1ncc2cc(CC(=O)N[C@@H]3CCN(c4ccc(C(F)(F)F)nc4)C3)ccc21` [Example 144, (R)-2-(1-methyl-1H-indazol-5-yl)-N-(1-(6-(trifluoromethyl)pyridin-3-yl)pyrrolidin-3-yl)acetamide]: the 50% inhibitory concentration (IC50) in assay [1] was found to be 22 nM; in assay [2] it was 470 nM.
Take `O=C(Cc1ccc(N2CCOCC2)cc1)N[C@@H]1CCN(c2cncc(C(F)(F)F)c2)C1` [Example 181, (R)-2-(4-morpholinophenyl)-N-(1-(5-(trifluoromethyl)pyridin-3-yl)pyrrolidin-3-yl)acetamide]: in assay [1], the IC50 was 25 nM.
Turning to `Cn1ncc2cc(CC(=O)N[C@@H]3CCN(c4cncc(C(F)(F)F)c4)C3)ccc21` [Example 142, (R)-2-(1-methyl-1H-indazol-5-yl)-N-(1-(5-(trifluoromethyl)pyridin-3-yl)pyrrolidin-3-yl)acetamide], in assay [1], the IC50 stood at 9.4 nM.
As for `COC(=O)C1(NC(=O)Cc2ccc(C3CC3)cc2)CCN(c2cncc(C(F)(F)F)c2)C1` (stereo not drawn) [Example 13, Methyl 3-(2-(4-cyclopropylphenyl)acetamido)-1-(5-(trifluoromethyl)pyridin-3-yl)pyrrolidine-3-carboxylate], the IC50 in assay [1] came out at 18 nM.
As to `O=C(N[C@@H]1CCCN(c2ccc(C(F)(F)F)nc2)C1)C1CC1c1nc2ccccc2[nH]1` (single isomer, unassigned) [Example 63A], the IC50 in assay [1] worked out at 190 nM.
The same measure, in the same setting: with `O=C(N[C@@H]1CCN(c2ccc(C(F)(F)F)nc2)C1)[C@H]1C[C@@H]1c1nc2ccccc2[nH]1` [Example 54, (1S,2S)-2-(1H-benzo[d]imidazol-2-yl)-N—((R)-1-(6-(trifluoromethyl)pyridin-3-yl)pyrrolidin-3-yl)cyclopropane-1-carboxyamide] the figure was 87 nM.
As for `O=C(Cc1cc(F)cc(Cl)c1)N[C@@H]1CCN(c2cncc(C(F)(F)F)c2)C1` [Example 120, (R)-2-(3-chloro-5-fluorophenyl)-N-(1-(5-(trifluoromethyl)pyridin-3-yl)pyrrolidin-3-yl)acetamide], the IC50 in assay [1] was 820 nM.
With `O=C(Cc1ccc(N2CC3(COC3)C2)cc1)N[C@@H]1CCN(c2cncc(C(F)(F)F)c2)C1` [Example 46, (R)-2-(4-(2-oxa-6-azaspiro[3.3]heptan-6-yl)phenyl)-N-(1-(5-(trifluoromethyl)pyridin-3-yl)pyrrolidin-3-yl) acetamide], the half-inhibitory concentration (IC50) in assay [1] stood at 260 nM.
Regarding `O=C(N[C@@H]1CCN(c2cncc(C(F)(F)F)c2)C1)C1CC1c1ccc(Br)cc1` (single isomer, unassigned) [Example 100B], in assay [1], the 50% inhibitory concentration (IC50) is 460 nM.
Turning to `O=C(N[C@@H]1CCN(c2cncc(C(F)(F)F)c2)C1)C(O)c1ccc(Br)cc1` (stereo partly drawn) [Example 25, 2-(4-Bromophenyl)-2-hydroxy-N—((R)-1-(5-(trifluoromethyl)pyridin-3-yl)pyrrolidin-3-yl)acetamide], the concentration for half-maximal inhibition (IC50) in assay [1] was 2000 nM.
Still for that read-out and setting: next, `O=C(Cc1ccc(C2CC2)cc1)N[C@@H]1CCN(c2nc(C(F)(F)F)cs2)C1` [Example 16, (R)-2-(4-cyclopropylphenyl)-N-(1-(4-(trifluoromethyl)thiazol-2-yl)pyrrolidin-3-yl)acetamide]: 320 nM; `O=C(N[C@@H]1CCN(c2cncc(Br)c2)C1)[C@H]1C[C@@H]1c1nc2ccccc2[nH]1` [Example 76, (1S,2S)-2-(1H-benzo[d]imidazol-2-yl)-N—((R)-1-(5-bromopyridin-3-yl)pyrrolidin-3-yl)cyclopropane-1-carboxyamide]: 67 nM.
`O=C(Cc1ccc2[nH]ncc2c1)N[C@@H]1CCN(c2cncc(C(F)(F)F)c2)C1` [Example 159, (R)-2-(1H-indazol-5-yl)-N-(1-(5-(trifluoromethyl)pyridin-3-yl)pyrrolidin-3-yl)acetamide]: the concentration for half-maximal inhibition (IC50) in assay [1] amounted to 510 nM.
As for `O=C(N[C@@H]1CCN(c2cncc(C(F)(F)F)c2)C1)C1CC1c1ccc(C2CC2)cc1` (single isomer, unassigned) [Example 106B], the IC50 in assay [1] came to 400 nM.
